# Assay results taken from patent publication US20260174780A1, “BISMUTH-THIOL COMPOSITIONS AND METHODS FOR TREATING INFLAMMATORY DISEASES” (Microbion Corporation, priority 2022, published 2026).
# Columns and labels:
# HUVEC cells = assay: Cytokine ELISA in HUVEC cells; type: cell-based, human; conditions: 0.5, 1, 2 or 4 μg/mL, 24 hours, compared to untreated cells
# Experimental: (§1) Protocol: HUVEC cells were grown in tissue culture flasks and a 24-well plate was seeded with 2×10^5 cells/well and incubated at 37° C. and 5% CO2 for 48 hours. Select wells were treated with either 4 μg/mL, 2 μg/mL, 1 μg/mL, or 0.5 μg/mL BisEDT or left untreated as a control and incubated at 37° C. and 5% CO2 for 24 hours. Cell culture supernatant was collected from each well and stored at −20° C. until further ELISA analysis. On the day of the ELISA assays to determine the expression of each cytokine, cell culture supernatant was thawed, and the assays performed following the manufacturer's instructions. Cells were collected for RNA isolation using Qiagen RNeasy kit using manufacturer's instructions. Briefly, genomic DNA was degraded with DNase (Roche) and samples were incubated at 37° C. for 1 hour followed by 3 μL DNase inactivation reagent (Invitrogen) incubated at 37° C. for 2 minutes. Samples were centrifuged at maximum speed for 5 minutes to remove the inactivation reagent. RNA concentration and quality was evaluated using a Nanodrop. RNA samples were utilized to generate cDNA using cDNA synthesis kit (Bio-Rad). qPCR for AIM2 and actin (housekeeping gene) was conducted using SYBR green kit (Bio-Rad) along with standard.
# NLRP3 = assay: qPCR of NLRP3 in A549 cells; type: cell-based, human; conditions: 0.5-4 μg/mL, 24 hours, compared to untreated cells
# Experimental: as §1, with “A549” for “HUVEC”, “further” for “further ELISA”, “analysis.” for “analysis. On the day of the ELISA assays to determine the expression of each cytokine, cell culture supernatant was thawed, and the assays performed following the manufacturer's instructions.”, “NLRP3” for “AIM2”
# [1] = test system: FITC-induced contact hypersensitivity; assay: FITC-induced contact hypersensitivity in mice (ear swelling, histopathology, ear cytokines); type: in vivo, BALB/c mice
# Experimental: Protocol: Male BALB/c mice at 8 weeks old are used in the study.
# All animals, except those in Group 1 (Sham), were sensitized topically (TOP) on the shaved abdominal skin with 200 μL of 0.5% Fluorescein Isothiocyanate (FITC) dissolved in 20% tributyrin in acetone on Days 1 and 2. On Day 7, animals were challenged by applying 20 μL of 0.5% FITC solution onto both sides of the right ear. Animals in Group 1 received nothing.
# Vehicle, BisEDT test articles and reference compound (tacrolimus) were administered topically (TOP) once daily (QD) from Day 6 to Day 9 for 4 consecutive days (1 hour before FITC challenge on Day 7). The vehicle for BisEDT was phosphate-buffered saline (PBS).
# • 2.5 mg/mL BisEDT topical suspension • 1.25 mg/mL BisEDT topical suspension—prepared as a 1:1 dilution of 2.5 mg/mL BisEDT topical suspension in sterile water and vortexed to ensure homogeneity
# Analysis: Ear swelling was measured by an experimenter blinded to treatment group, with a dial thickness micrometer gauge as an index of inflammation 30 min before dosing on Days 7, 8, 9 and 10. On Day 10, ear swelling was measured at 24 hours after the last dosing. Ear edema was calculated by subtracting the thickness of Day 7 (normal control) from Day n (treated ear). Percentage inhibition was calculated according to the formula: (Ic−It)/Ic×100, where Ic and It refer to the increase of ear thickness (mm) both in the control and treated animals. Body weight was recorded daily during the study period.
# The animals were sacrificed on Day 10 and the ears were then harvested and weighed. Half of the right ear was fixed in 10% formalin for histopathology, and the other half was processed for cytokine measurement (IL-18, IL-6, and IL-10) using ThermoFisher Mouse ProcartaPlex Kit by Luminex.
# [2] = topical, compared to vehicle control
structure (smiles),measurement,setting,value
"C1C[S][Bi]([S]CC[S][Bi]2[S]CC[S]2)[S]1 [BisEDT, 1,2-(Bis(1,3-dithia-2-bismolane)thio)ethane]",expression of IL-18,HUVEC cells,Consistent reduction
same,expression of TNF-α,HUVEC cells,Consistent reduction
same,NLRP3 expression (NLRP3/Actin copy number),NLRP3,inhibits NLRP3 expression
same,overall effect in the FITC-induced contact hypersensitivity model,"[1]; mouse, in vivo",overall anti-inflammatory effect
same,ear swelling,"[1]; topical QD x 4, 2.5 and 1.25 mg/mL, compared to vehicle control",statistically significant and dose-dependent reduction
same,epidermal thickness,[1]; [2],significant reduction
same,histopathological score,[1]; [2],significant reduction
